Experiments:
[1] = test system: T1, wild-type (GRR) human STING cGAMP binding domain (residues 155-341); test: Differential Scanning Fluorimetry (DSF), stability of STING protein against thermal denaturation; settings: 100 uM compound, 3 uM target protein
T1 construct: His-TEV-hSTING (WT); TEV protease cleavage site (N); made in house; host or cells: E. coli BL21 DE3
Experimental: Dye fluorescence is quenched in aqueous environment and increases upon association of the dye with the hydrophobic parts of the unfolding protein. […] The inflection point of the curve represents the “melting” temperature of the protein (Tm) which is calculated numerically using the Boltzmann equation.
Method: The thermal stability of the STING protein was measured using a specific expression construct of the cGAMP binding domain of wild-type (GRR) human STING comprising residues 155-341 and a N-terminal 8x His-tag in assay buffer containing 20 mM Tris, 150 mM NaCl at pH7.5.
The assay uses Hard-Shell®PCR Plates 384-Well CLR/WHT (Catalog #HSP3805, BIO-RAD), Microseal®‘B’ Adhesive Seals for PCR Plates (Catalog #MSB-1001, BIO-RAD) and was run on a CFX384 Real-Time System (Bio-Rad).
A DMSO stock solution of SYPRO orange (SIGMA S5692-500UL) was prepared.
Compound stock solutions (10 mM in DMSO) were diluted 1:2 in DMSO to an intermediate compound concentration of 5 mM and then further diluted 1:40 in assay buffer resulting in a compound concentration of 125 μM and 2.5% DMSO.
Fluorescent dye stock solution (5000×SYPRO Orange) was then mixed with target protein and buffer to a concentration of 15 uM Protein and 25×SYPRO Orange. 2 ul of this protein-dye-mixture was added to 8 ul compound solution. Final volume was 10 uL. 3-6 well positions were used as negative control (protein with 2% DMSO). The plates were prepared for duplicate measurement and centrifuged for 2 min at 1000 g. In the measurement, 160 cycles of 0.5° C. were used (temperature ramp 15 s/cycle, 15° C. to 95° C.).
Final Assay concentrations for compound characterization were as follows:
100 uM compound, 3 uM target protein, 5×SYPRO Orange, 2% DMSO in 10 ul. All dispensing steps were performed using a HamiltonStar pipetting robot (Hamilton).
Dissociation curves were processed in Bio-Rad CFX Manager. Peak type was set to “negative”.
Compound codes for screen were assigned in the plate layout.
Two replicates of TM measurements were averaged, and the standard deviation was calculated. In cases of SD>1.5° C. the measurement was repeated.
The melting point (Tm) obtained for STING protein alone was subtracted from T obtained for protein incubated with ligand to generate ΔTm values.
Protein production and purification: The protein used for the biophysical experiments was a recombinant human STING protein comprising its cytosolic ectodomain. A codon optimized DNA sequence (for expression in Escherichia coli) encoding amino acid residues 155 to 341 (Swiss Prot Q86WV6) of human STING (WT) was synthesized by GeneArt (Regensburg, Germany) and inserted into a pET17b E. coli expression vector. The protein construct encodes an N-terminal 8× His-tag followed by tobacco etch virus protease (TEV) cleavage site and the above STING gene sequence. The resulting protein sequence for the used STING variant is listed below:
For expression of recombinant human STING above construct was transformed into E. coli BL21 DE3 strain and grown in shake flasks in LB-medium at 37° C. Expression was induced by addition of isopropyl β-D-1-thiogalactopyranoside to a final concentration of 1 mM and cultures shaken overnight. Cell pellets were centrifuged and stored at −70° C. until further use. Protein was purified by cell thawing in lysis buffer (20 mM TRIS-HCl, pH 8, 300 mM NaCl, 2 mM mercaptoethanol, 20 mM imidazole, Complete Protease Inhibitor (Roche) and DNase (Roche)), followed by metal affinity purification using Ni-NTA resins and elution buffer consisting of 20 mM TRIS-HCl, pH 8, 300 mM NaCl, 2 mM mercaptoethanol, 300 mM imidazole and size exclusion chromatography in running buffer (20 mM TRIS-HCl, pH 8, 100 mM NaCl, 2 mM DTT). The peak fraction was collected and concentrated to 2.5 mg/mL.

STING = test system: T2, STING; test: Human whole blood assay (HWBA), cGAMP-stimulated IFNα2α production; assay type: cell-based; settings: human whole blood stimulated by cGAMP
T2 construct: from tissue; host or cells: human whole blood from healthy donors
Experimental: For the detection of STING inhibition in physiological environment human whole blood was stimulated by the cyclic dinucleotide cGAMP. Pathway activity was monitored by measuring the IFNα2α production.
Assay method: Compounds were delivered as 10 mM DMSO solution and serial diluted and transferred to the 96-well Cell culture Plate (Corning #3595), prefilled with 20 μl OptiMEM (Gibco #11058-021) in each well, using an Echo acoustic dispenser. Typically, 8 concentrations were used with the highest concentration at 10 μM in the final assay volume followed by ^˜1:5 dilution steps. DMSO concentration was set to 0.1% in the final assay volume. The 96 well assay plate contained 9 test compounds, a reference compound and DMSO in control wells.
Collection of human whole blood from 3 or more healthy donors (male or female, no medication for 7 days, exception contraceptive and thyroxine) as Na-citrate blood (e.g. 3.8% in Monovettes from Sarstedt) is conducted in parallel. Whole blood was kept at room temperature for a maximum of 3 hours after collection until use in the assay.
160 μl of the whole blood samples were transferred to each well of the 96-well assay plates filled with compound/OptiMEM. All assay plates are prepared as duplicates with blood from different donors. Blood plates were kept at room temperature for 60 minutes and continuous shaking with 450 rpm, covered with the lid, but not sealed.
A 10× cGAMP assay solution was diluted from a 2 mM stock solution in 1×HBSS immediately before use at room temperature. 20 μl of the 10× cGAMP/HBSS were added to all compound and all high control wells, whereas HBSS only was added to all low control wells.
After covering assay plates with aera seals and the lid, blood plates were kept at room temperature for 30 minutes and continuous shaking with 450 rpm, followed by an overnight incubation of 22 h at 37° C. in the incubator, without shaking.
For the detection of IFNα-2α in human plasma, the biotinylated capture antibody (Antibody set IFNA2, Meso Scale Diagnostics #B21VH-3, including coating and capture antibody) was diluted 1:17.5 in Diluent 100 (Meso Scale Diagnostics #R50AA-4, according to the manufacturer. U-Plex MSD GOLD 96-well Small Spot Streptavidin SECTOR Plates (Meso Scale Diagnostics #L45SA-5) were coated with 25 μl diluted capture antibody. Coated plates were incubated for 60 min at room temperature under continuous shaking at 700 rpm. MSD IFNα-2α plates were washed three times with 150 μl wash buffer (1×HBSS, 0.05% Tween).
After blocking the plates with 100 μl block solution/well (1×HBSS with 0.2% Tween, 2% BSA) for 60 min at room temperature and continuous shaking at 700 rpm, plates were emptied as dry as possible by dumping just before continuing with the human plasma. Whole Blood assay plates were centrifuged at 1600 rpm for 10 minutes. 25 μl of supernatant was transferred with a pipetting robotics from each whole blood plate to the corresponding IFNα-2α plate. Plates were sealed with microplate seals and kept at room temperature again under continuous shaking at 700 rpm for two hours. Next MSD IFNα-2α plates were washed three times with 150 μl wash buffer (1×HBSS, 0.05% Tween), before adding 25 μl MSD SULFO-TAG IFNα-2α Antibody solution (1:100 diluted in Diluent 3 (Meso Scale Diagnostics #R50AP-2) to each well of the plates. Afterwards plates were sealed with microplate seals and kept at room temperature again under continuous shaking at 700 rpm for two hours. Finally, MSD IFNα-2α plates were washed three times with 150 μl wash buffer (1×HBSS, 0.05% Tween). 150 μl 2× Read buffer was added to each well and plates were immediately measured with the MSD Sector S600 Reader using the vendor barcode.
Data evaluation and calculation: For data evaluation and calculation, % control calculation of each well was based on the mean of high (cGAMP stimulated control) and mean of low (unstimulated control) controls by using the following formula: […]

| Compound | DSF ΔTm (K) [1] [K] | IC50 (STING) [µM] |
| --- | --- | --- |
| Cn1c(-c2ccc(P(C)(C)=O)cc2OC(F)(F)F)nc(-c2cccc3nn(-c4cc(C(F)(F)F)[nH]n4)cc23)c1C1CC1 [Example 21, 4-{5-cyclopropyl-2-[4-(dimethylphosphoryl)-2-(trifluoromethoxy)phenyl]-1-methylimidazol-4-yl}-2-[5-(trifluoromethyl)-1H-pyrazol-3-yl]indazole] | 29 | 0.13 |
| CNC(=O)c1ccc(-c2nc(-c3cccc4nn(-c5cn(C6CC6)nc5OC)cc34)c(C3CC3)n2C)c(OC(F)(F)F)c1 [Example 1, 4-{5-cyclopropyl-4-[2-(1-cyclopropyl-3-methoxy-1H-pyrazol-4-yl)-2H-indazol-4-yl]-1-methyl-1H-imidazol-2-yl}-N-methyl-3-(trifluoromethoxy)benzamide] | 28 | 0.082 |
